Patent US11858956B2, “6-aza-nucleoside prodrugs as antiviral agents for treating virus infections” (Southern Research Institute, priority 2020, dated 2024)

How the values were obtained:
Type in all cases: cell-based
ZIKA = test: Antiviral activity against ZIKA in HEK 293 cells; settings: Zika virus; for EC90: HEK293, read-out: ZIKA (HEK 293 cells) EC90; for log reduction at 10 µM: HEK293, read-out: ZIKA (HEK 293 cells) VTR (virus titer reduction)
WNV = test: Antiviral activity against WNV in HEK293 cells; settings: West Nile virus; for EC90: HEK293, read-out: WNV (HEK293 cells) EC90; for log reduction at 10 µM: HEK293, read-out: WNV (HEK293 cells) VTR (virus titer reduction)
DENV = test: Antiviral activity against DENV in HEK293 cells; settings: Dengue virus; for EC90: HEK293, read-out: DENV (HEK293 cells) EC90; for log reduction at 10 µM: HEK293, read-out: DENV (HEK293 cells) VTR (virus titer reduction)
[1] = Cytotoxicity (CC50) in HEK293 cells; settings: human, WNV
Protocol: (§1) As used herein, “CC50” is intended to refer to the concentration of a substance (e.g., a compound or a drug) that is required for 50% reduction of cell viability. In one aspect, an CC50 can refer to the concentration of a substance that is required for 50% reduction (i.e., cytotoxicity) in vivo, as further defined elsewhere herein.
The antiviral activity against Alpharviruses evaluated in HEK293 cells (4 hours pre-incubation with compound before infected with virus) is shown in Table 2 below. VTR=Virus titer reduction in log at 10 μM concentration. NT: not tested, ND: not determined

[2] = Cytotoxicity (CC50) in MDCK cells; settings: dog, H1N1
Protocol: as §1
(§2) The antiviral activity against Influenza viruses (H1N1 and H3N2 strains) evaluated in MDCK cells (4-6 hours pre-incubation with compound) shown in Table 5 below. VTR=Virus titer reduction in log at 20 μM concentration. NT: not tested, ND: not determined.

H1N1 strain = test: Antiviral activity against Influenza H1N1 strain in MDCK cells; settings: Influenza A virus; for EC90: 4-6 hours pre-incubation with compound; for log reduction at 20 µM: at 20 μM concentration, 4-6 hours pre-incubation, read-out: H1N1 strain (MDCK cells) VTR (virus titer reduction)
Protocol: as §2

H3N2 strain = test: Antiviral activity against Influenza H3N2 strain in MDCK cells; settings: Influenza A virus; for EC90: 4-6 hours pre-incubation with compound; for log reduction at 20 µM: at 20 μM concentration, 4-6 hours pre-incubation, read-out: H3N2 strain (MDCK cells) VTR (virus titer reduction)
Protocol: as §2

CHIKV = test: Antiviral activity against CHIKV in NHDF cells; settings: Chikungunya virus; for EC90: read-out: CHIKV (NHDF cells) EC90; for log reduction at 10 µM: read-out: CHIKV (NHDF cells) VTR (virus titer reduction)
[3] = Cytotoxicity (CC50) in NHDF cells; settings: human, CHIKV
Protocol: as §1
VTR=Virus titer reduction in log at 10 μM concentration. NT: not tested, ND: not determined.

VEEV = test: microbe, parasite or virus in culture; settings: Venezuelan equine encephalitis virus, NHDF; for EC90: read-out: VEEV (NHDF cells) EC90; for log reduction at 10 µM: read-out: VEEV (NHDF cells) VTR (virus titer reduction)

SMILES | EC90 (ZIKA) | log reduction at 10 µM (ZIKA) | EC90 (WNV) | log reduction at 10 µM (WNV) | EC90 (DENV) | log reduction at 10 µM (DENV) | CC50 [1] | CC50 [2] | EC90 (H1N1 strain) | log reduction at 20 µM (H1N1 strain) | EC90 (H3N2 strain) | log reduction at 20 µM (H3N2 strain) | EC90 (CHIKV) | log reduction at 10 µM (CHIKV) | CC50 [3] | EC90 (VEEV) | log reduction at 10 µM (VEEV)
O=C(Nc1cnn([C@@H]2O[C@H](CO)[C@@H](O)[C@H]2O)c(=O)n1)C1CC1 [Compound 21, N-(2-((2R,3R,4S,5R)-3,4-dihydroxy-5-(hydroxymethyl)tetrahydro-furan-2-yl)-3-oxo-2,3-dihydro-1,2,4-triazin-5-yl)cyclopropane-carboxamide] | 0.2 µM | 4 | 0.4 µM | 4.5 | 0.34 µM | 3.4 | 18.9 µM | > 20 µM | 2.8 µM | 3.6 | 3.9 µM | 3 | 4.9 µM | 1.7 | – | – | –
CC(C)C(=O)OC[C@H]1O[C@@H](n2ncc(=O)[nH]c2=O)[C@H](O)[C@@H]1O [Compound 14, ((2r,3s,4r,5r)-5-(3,5-dioxo-4,5-dihydro-1,2,4-triazin-2(3H)-yl)-3,4-dihydroxytetrahydrofuran-2-yl)-methyl isobutyrate] | – | – | – | – | 5 µM | 2.1 | > 40 µM | > 20 µM | 3.6 µM | 3.3 | 16.4 µM | 3.3 | – | – | – | – | –
N[C@@H](Cc1ccccc1)C(=O)OC[C@H]1O[C@@H](n2ncc(=O)[nH]c2=O)[C@H](O)[C@@H]1O [Compound 11, ((2r,3s,4r,5r)-5-(3,5-dioxo-4,5-dihydro-1,2,4-triazin-2(3H)-yl)-3,4-dihydroxytetrahydrofuran-2-yl)methyl L-phenylalaninate] | > 30 µM | – | > 30 µM | – | > 30 µM | – | – | > 20 µM | 0.14 µM | 3.4 | 0.78 µM | 3.4 | > 10 µM | 0.05 | > 40 µM | – | –
CCOP(=O)(OCC)OC[C@H]1O[C@@H](n2ncc(=O)[nH]c2=O)C(O)C1O (stereo partly drawn) [Compound 16, (2r,3s,4r,5r)-5-(3,5-dioxo-4,5-dihydro-1,2,4-triazin-2(3H)-yl)-3,4-dihydroxytetrahydrofuran-2-yl) methyl diethyl phosphate] | > 10 µM | – | > 10 µM | – | > 30 µM | – | > 40 µM | > 100 µM | > 100 µM | – | – | – | – | – | – | 10.1 µM | 1.05
CCCCCCCCCCCC(=O)Nc1cnn([C@@H]2O[C@H](CO)[C@@H](O)[C@H]2O)c(=O)n1 [Compound 19, N-(2-((2r,3r,4s,5r)-3,4-dihydroxy-5-(hydroxy-methyl)tetrahydrofuran-2-yl)-3-oxo-2,3-dihydro-1,2,4-triazin-5-yl)dodecanamide] | 1.1 µM | 2.6 | 0.7 µM | 4 | 0.6 µM | 2.1 | > 40 µM | > 20 µM | 3.16 µM | 3.3 | 12.1 µM | 3.3 | – | – | – | – | –
CC[C@H](C)[C@@H](N)C(=O)OC[C@H]1O[C@@H](n2ncc(=O)[nH]c2=O)C(O)C1O (stereo partly drawn) [Compound 13, ((2r,3s,4r,5r)-5-(3,5-dioxo-4,5-dihydro-1,2,4-triazin-2(3)-yl)-3,4-dihydroxytetrahydrofuran-2-yl)methyl D-alloisoleucinate] | – | – | – | – | 0.5 µM | 4 | 6.7 µM | – | – | 3.6 | – | 2.8 | 0.51 µM | 4.3 | > 40 µM | – | –
CCC(CC)COC(=O)[C@H](C)NP(=O)(OC[C@H]1O[C@@H](n2ncc(N)nc2=O)C(O)C1O)Oc1ccccc1 (single isomer, unassigned) [Compound 17, 2-ethylbutyl ((((2r,9,4r,5r)-5-(5-amino-3-oxo-1,2,4-triazin-2(3H)-yl)-3,4-dihydroxytetrahydrofuran-2-yl)methoxy)-(phenoxy)phosphoryl)-L-alaninate] | – | – | – | – | > 30 µM | – | – | – | – | – | – | – | – | – | – | 5 µM | 1
CCC(CC)COC(=O)[C@H](C)NP(=O)(OC[C@H]1O[C@@H](n2ncc(=O)[nH]c2=O)[C@H](O)[C@@H]1O)Oc1ccccc1 (mixture of isomers) [Compound 3, 2-ethylbutyl ((((2R,3S,4R,5R)-5-(3,5-dioxo-4,5-dihydro-1,2,4-triazin-2(3H)-yl)-3,4-dihydroxytetrahydrofuran-2-yl)methoxy)(phenoxy)phosphoryl)-L-alaninate] | 3.3 µM | 2.4 | 2.9 µM | 3.2 | 2.5 µM | 3.5 | > 40 µM | – | – | – | – | – | > 10 µM | 0 | > 40 µM | > 10 µM | 0
O=C(Nc1cnn([C@@H]2O[C@H](CO)[C@@H](O)[C@H]2O)c(=O)n1)C1CCC1 [Compound 22, N-(2-((2R,3R,4S,5R)-3,4-dihydroxy-5-(hydroxymethyl)-tetrahydrofuran-2-yl)-3-oxo-2,3-dihydro-1,2,4-triazin-5-yl)-cyclobutanecarboxamide] | 0.4 µM | 2.6 | – | – | 1 µM | 3.2 | 6.46 µM | 19 µM | 0.68 µM | 2.9 | 3.9 µM | 3 | 8 µM | 0.89 | – | – | –
CCCC(=O)Nc1cnn([C@@H]2O[C@H](CO)[C@@H](O)[C@H]2O)c(=O)n1 [Compound 20, N-(2-((2R,3R,4S,5R)-3,4-dihydroxy-5-(hydroxymethyl)tetrahydro-furan-2-yl)-3-oxo-2,3-dihydro-1,2,4-triazin-5-yl)butyramide] | 0.2 µM | 2.8 | – | – | 1.2 µM | 3 | 22.9 µM | > 20 µM | 2.8 µM | 2.9 | 3.5 µM | 2.7 | 9 µM | 1.5 | – | – | –
CC[C@@H](C)[C@@H](N)C(=O)OC[C@H]1O[C@@H](n2ncc(=O)[nH]c2=O)[C@H](O)[C@@H]1O [Compound 12, ((2r,3s,4r,5r)-5-(3,5-dioxo-4,5-dihydro-1,2,4-triazin-2(3H)-yl)-3,4-dihydroxytetrahydrofuran-2-yl)methyl D-isoleucinate] | – | – | – | – | 0.5 µM | 3.9 | 6.2 µM | – | – | – | – | – | 0.89 µM | 4.55 | > 40 µM | – | –
CC[C@H](C)[C@H](N)C(=O)OC[C@H]1O[C@@H](n2ncc(N)nc2=O)[C@H](O)[C@@H]1O [Compound 25, ((2r,3s,4r,5r)-5-(5-amino-3-oxo-1,2,4-triazin-2(3H)-yl)-3,4-dihydroxytetrahydrofuran-2-yl)methyl L-isoleucinate] | – | – | – | – | 5.1 µM | 2 | > 40 µM | – | – | – | – | – | 0.85 µM | 2.58 | > 40 µM | 1.5 µM | 2.17
CCCCCOC(=O)Nc1cnn([C@@H]2O[C@H](CO)[C@@H](O)[C@H]2O)c(=O)n1 [Compound 24, pentyl (2-((2R,3R,4S,5R)-3,4-dihydroxy-5-(hydroxy-methyl)tetrahydrofuran-2-yl)-3-oxo-2,3-dihydro-1,2,4-triazin-5-yl)carbamate] | 0.3 µM | 3.1 | – | – | 1.2 µM | 3.3 | 20.4 µM | – | – | 2.9 | – | 1.6 | > 10 µM | 0 | – | – | –
CCOC(=O)Nc1cnn([C@@H]2O[C@H](CO)[C@@H](O)[C@H]2O)c(=O)n1 [Compound 23, ethyl (2-((2R,3R,4S,5R)-3,4-dihydroxy-5-(hydroxy-methyl)tetrahydrofuran-2-yl)-3-oxo-2,3-dihydro-1,2,4-triazin-5-yl)carbamate] | 0.3 µM | 3 | – | – | 1.3 µM | 3.3 | 22.4 µM | > 20 µM | 3.78 µM | 3.6 | 6.3 µM | 2 | > 10 µM | 0 | – | – | –
